Source: the NIST ThermoML archive (doi:10.1016/j.jct.2011.10.023)
Numbers after ± are expanded uncertainties.

Conditions: Liquid, Vibrating tube method

CCCCCCCCO [octan-1-ol]
mass density [kg/m3]
Conditions | 278.15 K | 288.15 K | 298.15 K | 308.15 K | 318.15 K | 328.15 K | 338.15 K | 348.15 K | 358.15 K
100 kPa | 835.2 ± 2.4 | 828.4 ± 2.4 | 821.4 ± 2.4 | 814.5 ± 2.4 | 807.5 ± 2.4 | 800.4 ± 2.4 | 793.2 ± 2.4 | 785.6 ± 2.4 | 778 ± 2.4
1000 kPa | 835.7 ± 2.4 | 829 ± 2.4 | 822 ± 2.4 | 815.1 ± 2.4 | 808.1 ± 2.4 | 801.1 ± 2.4 | 793.9 ± 2.4 | 786.4 ± 2.4 | 778.8 ± 2.4
5000 kPa | 838 ± 2.4 | 831.5 ± 2.4 | 824.6 ± 2.4 | 817.8 ± 2.4 | 811 ± 2.4 | 804.1 ± 2.4 | 796.9 ± 2.4 | 789.8 ± 2.4 | 782.3 ± 2.4
10000 kPa | 841 ± 2.4 | 834.4 ± 2.4 | 827.7 ± 2.4 | 821.1 ± 2.4 | 814.4 ± 2.4 | 807.7 ± 2.4 | 800.8 ± 2.4 | 793.6 ± 2.4 | 786.4 ± 2.4
15000 kPa | 843.7 ± 2.4 | 837.3 ± 2.4 | 830.7 ± 2.4 | 824.2 ± 2.4 | 817.7 ± 2.4 | 811.1 ± 2.4 | 804.4 ± 2.4 | 797.4 ± 2.4 | 790.4 ± 2.4
20000 kPa | 846.4 ± 2.4 | 840.1 ± 2.4 | 833.6 ± 2.4 | 827.2 ± 2.4 | 820.8 ± 2.4 | 814.4 ± 2.4 | 807.8 ± 2.4 | 801 ± 2.4 | 794.1 ± 2.4
25000 kPa | 849 ± 2.4 | 842.8 ± 2.4 | 836.4 ± 2.4 | 830.1 ± 2.4 | 823.8 ± 2.4 | 817.5 ± 2.4 | 811.1 ± 2.4 | 804.5 ± 2.4 | 797.7 ± 2.4
30000 kPa | 851.5 ± 2.4 | 845.5 ± 2.4 | 839.1 ± 2.4 | 833 ± 2.4 | 826.8 ± 2.4 | 820.5 ± 2.4 | 814.2 ± 2.4 | 807.8 ± 2.4 | 801.1 ± 2.4
35000 kPa | 854 ± 2.4 | 848 ± 2.4 | 841.8 ± 2.4 | 835.7 ± 2.4 | 829.6 ± 2.4 | 823.5 ± 2.4 | 817.3 ± 2.4 | 810.9 ± 2.4 | 804.5 ± 2.4
40000 kPa | 856.4 ± 2.4 | 850.5 ± 2.4 | 844.4 ± 2.4 | 838.4 ± 2.4 | 832.4 ± 2.4 | 826.4 ± 2.4 | 820.3 ± 2.4 | 814 ± 2.4 | 807.7 ± 2.4
45000 kPa | 858.8 ± 2.4 | 852.9 ± 2.4 | 846.9 ± 2.4 | 841 ± 2.4 | 835.1 ± 2.4 | 829.1 ± 2.4 | 823.1 ± 2.4 | 817 ± 2.4 | 810.8 ± 2.4
50000 kPa | 861.1 ± 2.4 | 855.3 ± 2.4 | 849.4 ± 2.4 | 843.5 ± 2.4 | 837.7 ± 2.4 | 831.9 ± 2.4 | 825.9 ± 2.4 | 819.9 ± 2.4 | 813.6 ± 2.4
55000 kPa | 863.4 ± 2.4 | 857.6 ± 2.4 | 851.7 ± 2.4 | 846 ± 2.4 | 840.3 ± 2.4 | 834.5 ± 2.4 | 828.7 ± 2.4 | 822.7 ± 2.4 | 816.7 ± 2.4
60000 kPa | 865.5 ± 2.4 | 859.8 ± 2.4 | 853.9 ± 2.4 | 848.2 ± 2.4 | 842.6 ± 2.4 | 836.9 ± 2.4 | 831.2 ± 2.4 | 825.5 ± 2.5 | 819.6 ± 2.5
